Reference: patent publication US10907212B2, “Inhibitors of cell adhesion” (Regents of the University of Minnesota, priority 2016, dated 2021)
“Also recorded” adds a separate entry of the source. Where no end group is shown, it is not given here.

Assays:
[1] = test system: nectin 4 protein on NIH:OVCAR-5 cells; experiment: Effect of peptides on anti-Nectin-4 antibody binding to cells as determined by flow cytometry; assay type: cell-based, human; details: for IgG MFI: IgG control primary antibody; for nectin-4 antibody binding compared to untreated control cells (in words): flow cytometry; for Flow binding: summary table, Nectin-4 antibody binding relative to control = 100
Protocol: Confluent monolayers of cells were detached from 75 cm^2 tissue culture flasks using Accutase cell dissociation buffer (Innovative Cell Technologies, San Diego, Calif.), washed, and labeled with mouse IgG or mAbs against Nectin-4 or Nectin-1 (2.5 μg/10^6 cells) in Flow Buffer [phosphate buffered saline (PBS) containing 2.5% newborn calf serum and 0.02% sodium azide] for 30 min at 4° C.. Cells were washed and incubated with goat anti-mouse IgG F(ab′)2 (Jackson ImmunoResearch, West Grove, Pa.), then washed again and incubated with streptavidin-allophycocyanin conjugate (Jackson ImmunoResearch, West Grove, Pa.) for 30 min each. Cells were washed and fixed in Flow Buffer containing 1% formaldehyde and analyzed in the University of Minnesota Flow Cytometry Resource with a BD Accuri™ C6 flow cytometer (BD Biosciences, San Jose, Calif.) using the Accuri™ software.
Briefly, NIH:OVCAR-5 cells that natively express a moderate amount of nectin 4 protein were incubated for 30 minutes in 150 μg/mL of soluble peptide in DMSO. After incubation, the cells were washed, and then triple antibody stained using mouse anti-nectin 4 (or IgG control) primary antibody, biotinylated goat anti-mouse secondary antibody, and streptavidin APC tertiary antibody. Finally, utilizing the University of Minnesota flow core's Accuri C6 flow cytometer, the relative antibody binding affinity for control and peptide-treated samples was quantitated and compared. Data was collected for each of the 57 peptides generated.

[2] = test system: ovarian cancer cell aggregation and spheroid formation; experiment: Spheroid assay for peptides (visual scale +1 to +5); assay type: cell-based, human; details: for Spheroid-24: 24 hrs, Control = 2; for Spheroid-24 / Spheroid-48: visual scale of +1 to +5; for Spheroid-48: 48 hrs, Control = 4; for spheroid size relative to the control (in words): at 24 hrs
Protocol: Spheroids were formed from the NIH:OVCAR5 cell lines described above using the liquid overlay method. One milliliter of a single cell suspension was seeded at a concentration of 50,000 cells/ml in OptiMEM® media, into 24-well tissue culture plates coated with 0.5% Seakem agarose (in complete RPMI-1640). Plates were incubated at 37° C. in a humidified incubator with 5% CO2. At various time points up to 5 days, the plates were removed from the incubator and the spheroids were photographed with a Nikon CoolPix digital camera mounted on an Olympus CK2 inverted microscope with a 4× objective. The size of the spheroids was determined using the measure tool in Adobe Photoshop. The largest spheroids were quantified (20-90 spheroids/well), in a minimum of 8 wells, for a total of >300 spheroids per cell type.
The clinical relevance is that by blocking the formation of spheroids, the cells will be more sensitive to chemotherapy (which targets the single cells that proliferate more rapidly than spheroids).
The spheroid assay for peptides 1-30 were scored using a visual scale of +1 to +5. The controls were scored at +2 (24 hrs) and +4 (48 hrs). […] It may be harder to visually assess the size at 24 hours, since the spheroids are relatively small, but and perhaps some of the peptides are affecting cell division, and that is why the spheroids are smaller than the controls at 48 hours, but not 24 hrs (this can be easily assayed with an MTT assay).

[3] = Run One, 150 μg/mL peptide, 30 minutes, Control 1 = 15,015
[4] = Run One, 150 μg/mL peptide, 30 minutes, Control 1 = 1,670
[5] = Run One, antibody binding relative to Control 1 = 100.00
[6] = Run Three, 150 μg/mL peptide, 30 minutes, Control 3 = 13,070.20
[7] = Run Three, antibody binding relative to Control 3 = 100.00
[8] = Run Four, 150 μg/mL peptide, 30 minutes, Control 4 = 9,631.58
[9] = Run Four, Control 4 = 9.387504873
[10] = Run Four, antibody binding relative to Control 4 = 100
[11] = Run Two, 150 μg/mL peptide, 30 minutes, Control 2 = 49,491
[12] = Run Two, antibody binding relative to Control 2 = 100.00

Row | Substance | N4 MFI [1, 3] | IgG MFI [1, 4] | N4 MFI/IgG MFI ([1]; Run One, Control 1 = 8.99) | nectin-4 antibody binding, percent of control [1, 5] | Spheroid-24 [2] | Spheroid-48 [2] | nectin-4 antibody binding compared to untreated control cells (in words) ([1]; 150 μg/mL peptide) | Flow binding [1] | other results
1 | EVKGTTSSRSFKHS-NH2 (listed as Homo sapiens) [Peptide 14] | 13,217 | 3,125 | 4.23 | 75.62 | 1 | 2 |  |  | 
2 | FANPLPSVKITQVTW-NH2 (listed as Homo sapiens) [Peptide 32] |  |  |  |  |  | 2 | reduction in nectin-4 antibody binding | 13% | N4 MFI [1, 6]: 2,542.31; N4 MFI/IgG MFI ([1]; Run Three, Control 3 = 9.83): 2.47; IgG MFI ([1]; Run Three, Control 3 = 1330): 1029; nectin-4 antibody binding, percent of control [1, 7]: 12.89
3 | GQDDKVLVATCTSANG-NH2 (listed as Homo sapiens) [Peptide 41] |  |  |  |  | 3 |  |  |  | N4 MFI [1, 8]: 9,040.73; N4 MFI/IgG MFI [1, 9]: 8.302; IgG MFI ([1]; Run Four, Control 4 = 1,026): 1,089; nectin-4 antibody binding, percent of control [1, 10]: 92.4
4 | HGRRAGPVPTA-NH2 (listed as Homo sapiens) [Peptide 56] |  |  |  |  |  | 3 |  |  | N4 MFI ([1]; Run Five, 150 μg/mL peptide, 30 minutes, Control 5 = 17,768.90): 21,060.14; N4 MFI/IgG MFI ([1]; Run Five, Control 5 = 2.142155332): 2.035; IgG MFI ([1]; Run Five, Control 5 = 8,294.87): 10,346.61; nectin-4 antibody binding, percent of control ([1]; Run Five, antibody binding relative to Control 5 = 100): 113.1
5 | HSQVVQVNDSMYGF-NH2 (listed as Homo sapiens) [Peptide 30] |  |  |  |  |  | 3 | erroneous/outlier due to solubility issues | 321% | N4 MFI [1, 11]: 205,442; N4 MFI/IgG MFI ([1]; Run Two, Control 2 = 9.46): 3.24; IgG MFI ([1]; Run Two, Control 2 = 5,233): 63,394; nectin-4 antibody binding, percent of control [1, 12]: 320.95
6 | HSRSAAVTSEFHLV-NH2 (listed as Homo sapiens) [Peptide 15] | 7,980 | 2,158 | 3.70 | 43.63 | 1 | 2 | reduction in nectin-4 antibody binding; also recorded: reduced antibody binding | 44% | spheroid size (in words) [2]: reduced spheroid size
7 | ICEFATFPTGNRES-NH2 (listed as Homo sapiens) [Peptide 38] |  |  |  |  | 1 | 3 |  |  | N4 MFI [1, 6]: 12,128.26; N4 MFI/IgG MFI ([1]; Run Three, Control 3 = 9.83): 7.73; IgG MFI ([1]; Run Three, Control 3 = 1330): 1568; nectin-4 antibody binding, percent of control [1, 7]: 89.95
8 | LPSLNPGPALEEGQ-NH2 (listed as Homo sapiens) [Peptide 11] | 15,211 | 2,268 | 6.71 | 96.99 | ~1? | 3 |  |  | 
9 | LRNAVQADEGEYEC-NH2 (listed as Homo sapiens) [Peptide 8] | 20,015 | 1,670 | 11.99 | 137.47 | 3 |  | increased the binding of the Nectin-4 antibody to cells | 137% | spheroid size relative to the control (in words) [2]: slightly larger spheroid size
10 | LVPSREAHQQSLAC-NH2 (listed as Homo sapiens) [Peptide 45] |  |  |  |  | 3 |  |  |  | N4 MFI [1, 8]: 9,868.29; N4 MFI/IgG MFI [1, 9]: 9.646; IgG MFI ([1]; Run Four, Control 4 = 1,026): 1023; nectin-4 antibody binding, percent of control [1, 10]: 102.8
11 | LVPSRSMNGQPLTC-NH2 (listed as Homo sapiens) [Peptide 16] | 12,161 | 2,432 | 5.00 | 72.90 | 1 | 1 |  |  | 
12 | LWHIGREGAMLKCL-NH2 (listed as Homo sapiens) [Peptide 20] | 17,636 | 1,890 | 9.33 | 117.99 |  | 2 | increased binding of nectin-4 antibody | 118% | 
13 | NPNGTVTVISRYRLV-NH2 (listed as Homo sapiens) [Peptide 44] |  |  |  |  | 3 |  |  |  | N4 MFI [1, 8]: 7,802.22; N4 MFI/IgG MFI [1, 9]: 8.481; IgG MFI ([1]; Run Four, Control 4 = 1,026): 920; nectin-4 antibody binding, percent of control [1, 10]: 79.97
14 | PEVTIEGFDGNW-NH2 (listed as Homo sapiens) [Peptide 48] |  |  |  |  | 1 | 2 |  |  | N4 MFI [1, 8]: 10,595.37; N4 MFI/IgG MFI [1, 9]: 9.911; IgG MFI ([1]; Run Four, Control 4 = 1,026): 1069; nectin-4 antibody binding, percent of control [1, 10]: 110.7
15 | PPPRNPLDGSVLLR-NH2 (listed as Homo sapiens) [Peptide 7] | 18,342 | 1,255 | 14.62 | 128.04 | 3 |  | increased the binding of the Nectin-4 antibody to cells | 128% | spheroid size relative to the control (in words) [2]: slightly larger spheroid size
16 | QARLRLRVLVPPLP-NH2 (listed as Homo sapiens) [Peptide 10] | 4,119 | 2,452 | 1.68 | 12.49 | 1 | 2 | reduction in nectin-4 antibody binding; also recorded: reduced antibody binding | 12.50% | spheroid size (in words) [2]: reduced spheroid size
17 | RLKGEAEYQEIRNP-NH2 (listed as Homo sapiens) [Peptide 43] |  |  |  |  | 5 |  |  |  | N4 MFI [1, 8]: 9,677.93; N4 MFI/IgG MFI [1, 9]: 7.399; IgG MFI ([1]; Run Four, Control 4 = 1,026): 1308; nectin-4 antibody binding, percent of control [1, 10]: 97.26
18 | RPSFTDGTIRLS-NH2 (listed as Homo sapiens) [Peptide 36] |  |  |  |  |  | 3 |  |  | N4 MFI [1, 6]: 13,633.18; N4 MFI/IgG MFI ([1]; Run Three, Control 3 = 9.83): 7.80; IgG MFI ([1]; Run Three, Control 3 = 1330): 1748; nectin-4 antibody binding, percent of control [1, 7]: 101.23
19 | RVDGDTLGFPPLTT-NH2 (listed as Homo sapiens) [Peptide 23] |  |  |  |  | 1 | 2 | reduction in nectin-4 antibody binding | 35% | N4 MFI [1, 11]: 18,902; N4 MFI/IgG MFI ([1]; Run Two, Control 2 = 9.46): 5.66; IgG MFI ([1]; Run Two, Control 2 = 5,233): 3,342; nectin-4 antibody binding, percent of control [1, 12]: 35.16
20 | SGKQVDLVSAS-NH2 (listed as Homo sapiens) [Peptide 27] |  |  |  |  | 1 | 2 | reduction in nectin-4 antibody binding | 42% | N4 MFI [1, 11]: 22,824; N4 MFI/IgG MFI ([1]; Run Two, Control 2 = 9.46): 5.57; IgG MFI ([1]; Run Two, Control 2 = 5,233): 4,099; nectin-4 antibody binding, percent of control [1, 12]: 42.31
21 | SNEFSSRDSQVTVD-NH2 (listed as Homo sapiens) [Peptide 25] |  |  |  |  | 2 |  | reduction in nectin-4 antibody binding | 9.40% | N4 MFI [1, 11]: 7,756; N4 MFI/IgG MFI ([1]; Run Two, Control 2 = 9.46): 2.16; IgG MFI ([1]; Run Two, Control 2 = 5,233): 3,584; nectin-4 antibody binding, percent of control [1, 12]: 9.43
